{"source": "patent US20230139328A1", "about": "“DOSAGE FORMS FOR IMPROVING ORGAN TRANSPLANTATION, GRAFT VERSUS HOST DISEASE AND STEM CELLS TRANSPLANTS” (Aphios Corporation, priority 2020, published 2023)", "key": {"[1]": {"system": "PKC-δ siRNA nucleofected HUVEC", "test": "LTB4 mediated neutrophil migration across PKC-δ siRNA nucleofected HUVEC", "format": "cell-based, human", "settings": "100 nM, 1 h; PKC-δ knockdown", "description": "(§1) Because studies in FIG. 8 could not discriminate between PKC-δ and […] isoforms mediating the effect of Bryostatin-1, we knocked down individual isoforms using siRNA technology. In order to verify that we could knock down particular isoforms of PKC, specifically PKC-8 and PKC-ε isoforms in HUVEC, siRNA which selectively bind to and eliminate human PKC-8 and PKC-ε mRNAs were nucleofected into HUVEC prior to migration studies. […] HUVEC cells treated using these approaches were then subjected to chemotaxis studies with Bryostatin-1 to elucidate the mechanism of Bryostatin-1 mediated inhibition of LTB4 induced PMN migration.\n(§2) Neutrophil Transendothelial Migration (TEM) Restoration Studies: HUVECs were pretreated with Go-6983 (1, 10, 100 nM), or Go-6976 (1, 10,100 nM) for 30 minutes, then spiked with 100 nM Bryostatin-1 for 1 hour. […] Migration was stopped by removing the inserts and migration was measured using the MPO assay.\n(§3) Myeloperoxidase Assay: Neutrophil migration was measured using myeloperoxidase (MPO) analysis. […] The supernatant was removed, and MPO activity was measured using TMB/peroxide as chromogen. The reaction was stopped with sulfuric acid and absorbance was read at 450 nm using a microplate reader. […] Data was expressed as “% neutrophil migration”, which allowed cumulative statistical analysis to be done and account for unpreventable batch-to-batch variations. […]"}, "[2]": {"system": "neutrophil migration across HUVEC", "test": "Neutrophil transendothelial migration (TEM) restoration studies with PKC inhibitors in HUVEC", "format": "cell-based, human", "settings": "100 nM Bryostatin-1, 100 nM LTB4, 3 h", "procedure": "HUVEC were pretreated with G0-6983, a PKC inhibitor with dose dependent specificities for classical vs. novel PKC isoforms for 30 minutes prior to addition of Bryostatin-1 (100 nM) to block neutrophil migration. […] Neutrophil migration towards 100 nM LTB4 was initiated by adding LTB4 to the lower well.\nNeutrophil Transendothelial Migration (TEM) Restoration Studies: HUVECs were pretreated with Go-6983 (1, 10, 100 nM), or Go-6976 (1, 10,100 nM) for 30 minutes, then spiked with 100 nM Bryostatin-1 for 1 hour. HUVECs previously nucleofected with PKC-δ, -ε, or control siRNA were just treated in Bryostatin-1 for 1 hour. HUVECs were washed three times and placed in a new plate containing either 500 IL 100 nM LTB4, or HBSS alone for control. Neutrophils were allowed to migrate for 3 h at 37° C. Migration was stopped by removing the inserts and migration was measured using the MPO assay.\nMyeloperoxidase Assay: Neutrophil migration was measured using myeloperoxidase (MPO) analysis. Cell culture inserts were first removed, and plates were spun at 1,500 RPM for 5 min. The supernatant was removed, and MPO activity was measured using TMB/peroxide as chromogen. The reaction was stopped with sulfuric acid and absorbance was read at 450 nm using a microplate reader. All experiments were performed n=6. Data was expressed as “% neutrophil migration”, which allowed cumulative statistical analysis to be done and account for unpreventable batch-to-batch variations."}, "transplanted kidney": {"system": "transplanted kidney", "test": "Porcine kidney auto-transplantation model (20 h cold storage, reperfusion)", "format": "in vivo, German Landrace pigs", "settings": "pig", "procedure": "We used the porcine kidney auto-transplantation model with the modified PET formulation of Bryostatin-1 in thirty-two female German Landrace pigs weighing 20 to 40 kg. Briefly, animals had surgery for graft retrieval followed by a standard graft cold storage time (CST) of 20 h. During CST, kidneys were preserved with histidine-tryptophan-ketoglutarate (HTK)-solution either supplemented with 100 nM Bryostatin-1 or an equivalent volume of placebo (PET formulation). Donor animals then had surgery again for renal auto-transplantation and the graft was transplanted orthotopically. Thus, the contralateral kidney was removed to measure specifically function of the transplanted kidney. Time of reperfusion was 8 h and sample collection included cortical renal biopsies, tissue block samples at the end of the study and blood as well as urine analyses."}, "[3]": {"system": "PKC-ε siRNA nucleofected HUVEC", "test": "LTB4 mediated neutrophil migration across PKC-ε siRNA nucleofected HUVEC", "format": "cell-based, human", "settings": "1 h pretreatment; PKC-ε knockdown", "description": "as §1, §2, §3"}, "T84 intestinal epithelia": {"system": "T84 intestinal epithelia", "settings": "cited from earlier work"}, "[4]": {"settings": "cited from earlier work"}, "[5]": {"settings": "HTK-solution with 100 nM Bryostatin-1 during 20 h cold storage vs placebo"}}, "note": "“Also recorded” adds a separate entry of the source.", "data": [{"smiles": "CCC/C=C/C=C/C(=O)O[C@H]1/C(=C/C(=O)OC)C[C@H]2C[C@H]([C@@H](C)O)OC(=O)C[C@H](O)C[C@@H]3C[C@H](OC(C)=O)C(C)(C)[C@](O)(C[C@@H]4C/C(=C/C(=O)OC)C[C@H](/C=C/C(C)(C)[C@]1(O)O2)O4)O3", "note": "[Bryostatin-1]", "values": [{"measurement": "effect on LTB4 mediated neutrophil migration in PKC-δ siRNA nucleofected HUVEC", "setting": "[1]", "value": "restored the normal level of neutrophil trans endothelial migration; also recorded: will not inhibit LTB4 mediated neutrophil migration"}, {"measurement": "effect on LTB4 induced neutrophil migration, HUVEC", "setting": "[2]", "value": "reversed; also recorded: significantly suppressed LTB4 induced migration"}, {"measurement": "serum/plasma and urinary inflammatory biomarkers", "setting": "transplanted kidney; 100 nM Bryostatin-1 in HTK-solution", "value": "not altered"}, {"measurement": "kidney histology scores at 6 hours", "setting": "transplanted kidney; 100 nM Bryostatin-1 in HTK-solution, 6 hours", "value": "significantly improved"}, {"measurement": "kidney ultrastructural damage scores", "setting": "transplanted kidney; [5]", "value": "significantly reduced"}, {"measurement": "neutrophils entering the re-perfused kidney", "setting": "transplanted kidney; [5]", "value": "significantly prevented"}, {"measurement": "effect on LTB4 mediated neutrophil migration in PKC-ε siRNA nucleofected HUVEC", "setting": "[3]", "value": "did not restore LTB4 induced migration; also recorded: still suppresses migration"}, {"measurement": "barrier function and TNF-α induced barrier loss", "setting": "T84 intestinal epithelia", "value": "enhances barrier function and inhibits barrier loss induced by TNF-α"}, {"measurement": "major side effects associated with use", "setting": "[4]; Phase II trials, combination with other drugs, cancers", "value": "myalgias, nausea, and vomiting"}, {"measurement": "cardiovascular disturbances or edema", "setting": "[4]; clinical use", "value": "no cardiovascular disturbances or evidence of edema have been observed"}, {"measurement": "adverse effects at dosing ranges higher than 100 ng/ml plasma level", "setting": "[4]; healthy subjects and cancer patients", "value": "no adverse effects"}]}, {"smiles": "CCCCCCCCCCCCCC(=O)O[C@@H]1[C@@H](C)[C@@]2(O)[C@@H](C=C(CO)C[C@]3(O)C(=O)C(C)=C[C@@H]23)[C@@H]2C(C)(C)[C@]12OC(C)=O", "note": "[PMA, phorbol myristate acetate]", "values": [{"measurement": "effect on LTB4 mediated neutrophil migration in PKC-ε siRNA nucleofected HUVEC", "setting": "[3]", "value": "did not restore LTB4 induced migration"}]}]}
